Measured values published in patent publication EP4755888A1 (ILAb Co., Ltd., priority 2023, dated 2025).

biological target: PD-1/PD-L1 (Homo sapiens, UniProt Q9NZQ7); assay: TR-FRET PD-1/PD-L1 binding inhibition at the molecular level (free proteins); conditions: Tag1-PD-L1 and Tag2-PD-1 proteins, twelve concentrations from 200 nM, 2 hours at room temperature, read-out: FRET assay (IC50)
Description: In order to evaluate the inhibitory activity of the compounds synthesized according to the above Preparation Examples against PD-1/PD-L1 molecules in a free protein state,a TR-FRET (Time-Resolved Fluorescence Energy Transfer) experimetn was performed as described below.
Specifically, the compounds were prepared in a 96-well plate by serial dilution starting from 200 nM with 1/2 dilutions to obtain a total of twelve concentrations, and 2 µL of each compound solution was added to a 384-well plate. Thereafter, Tag1-PD-L1 protein and Tag2-PD-1 protein were each prepared at a 1x concentration, mixed at a ratio of 1:1, and 8 µL of the mixed solution was added to each well of the 384-well plate containing the compounds. Anti-Tag1 Eu Cryptate reagent and Anti-Tag2 XL665 antibody were each prepared at a 1* concentration, mixed at a ratio of 1:1, and 10 µL of the mixed solution was added to each well of the 384-well plate containing the compounds and proteins, followed by incubation at room temperature for 2 hours. Upon completion of the reaction, fluorescence signals at wavelengths of 620 nm and 665 nm were measured using a microplate reader.

Chain of PD-1/PD-L1 (Q9NZQ7 19-238 limits assumed): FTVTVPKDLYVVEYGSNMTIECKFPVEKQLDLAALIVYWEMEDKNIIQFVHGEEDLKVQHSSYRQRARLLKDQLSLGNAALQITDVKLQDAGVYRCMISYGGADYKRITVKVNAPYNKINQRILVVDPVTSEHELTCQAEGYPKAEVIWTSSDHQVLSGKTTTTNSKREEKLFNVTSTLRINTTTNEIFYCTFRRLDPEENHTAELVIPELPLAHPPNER

Row | Compound | IC50 [µM]
1 | Cc1c(Nc2nccc3cc(CN4CC[C@@H](O)C4)cnc23)cccc1-c1cccc(NC(=O)c2cc3n(n2)CCCC3N2CCC(O)CC2)c1Cl (stereo partly drawn) [Compound 34, N-(2-chloro-3'-((3-(((R)-3-hydroxypyrrolidin-1-yl)methyl)-1,7-naphthyridin-8-yl)amino)-2'-methyl-[1,1'-biphenyl]-3-yl)-4-(4-hydroxypiperidin-1-yl)-4,5,6,7-tetrahydropyrazolo[1,5-a]pyridine-2-carboxamide] | 0.01 to 0.1
2 | Cc1c(Nc2nccc3cc(CN4CC[C@@H](O)C4)cnc23)cccc1-c1cccc(NC(=O)c2cc3n(n2)CCCC3N2CCC(C(=O)O)CC2)c1Cl (stereo partly drawn) [Compound 35, 1-(2-((2-chloro-3'-((3-(((R)-3-hydroxypyrrolidin-1-yl)methyl)-1,7-naphthyridin-8-yl)amino)-2'-methyl-[1,1'-biphenyl]-3-yl)carbamoyl)-4,5,6,7-tetrahydropyrazolo[1,5-a]pyridin-4-yl)piperidine-4-carboxylic acid] | < 0.01
3 | Cc1c(Nc2nccc3cc(CN4CC[C@@H](O)C4)cnc23)cccc1-c1cccc(NC(=O)c2cc3n(n2)CCCC3O)c1Cl (stereo partly drawn) [Compound 36, N-(2-chloro-3'-((3-(((R)-3-hydroxypyrrolidin-1-yl)methyl)-1,7-naphthyridin-8-yl)amino)-2'-methyl-[1,1'-biphenyl]-3-yl)-4-hydroxy-4,5,6,7-tetrahydropyrazolo[1,5-a]pyridine-2-carboxamide] | 0.01 to 0.1
4 | Cc1c(NC(=O)c2cc3n(n2)CCCC3NCCO)cccc1-c1cccc(Nc2nccc3cc(CN4CC[C@@H](O)C4)cnc23)c1Cl (stereo partly drawn) [Compound 37, N-(2'-chloro-3'-((3-(((R)-3-hydroxypyrrolidin-1-yl)methyl)-1,7-naphthyridin-8-yl)amino)-2-methyl-[1,1'-biphenyl]-3-yl)-4-((2-hydroxyethyl)amino)-4,5,6,7-tetrahydropyrazolo[1,5-a]pyridine-2-carboxamide] | < 0.01
5 | Cc1c(NC(=O)c2cc3n(n2)CCCC3N2CC[C@@H](O)C2)cccc1-c1cccc(Nc2nccc3cc(CN4CC[C@@H](O)C4)cnc23)c1Cl (stereo partly drawn) [Compound 38, N-(2'-chloro-3'-((3-(((R)-3-hydroxypyrrolidin-1-yl)methyl)-1,7-naphthyridin-8-yl)amino)-2-methyl-[1,1'-biphenyl]-3-yl)-4-((R)-3-hydroxypyrrolidin-1-yl)-4,5,6,7-tetrahydropyrazolo[1,5-a]pyridine-2-carboxamide] | 0.01 to 0.1
6 | CC(=O)NCCNC1CCCn2nc(C(=O)Nc3cccc(-c4cccc(Nc5nccc6cc(CN7CC[C@@H](O)C7)cnc56)c4Cl)c3C)cc21 (stereo partly drawn) [Compound 39, 4-((2-acetamidoethyl)amino)-N-(2'-chloro-3'-((3-(((R)-3-hydroxypyrrolidin-1-yl)methyl)-1,7-naphthyridin-8-yl)amino)-2-methyl-[1,1'-biphenyl]-3-yl)-4,5,6,7-tetrahydropyrazolo[1,5-a]pyridine-2-carboxamide] | < 0.01
7 | Cc1c(NC(=O)c2cc3n(n2)CCCC3NC[C@@H]2CCC(=O)N2)cccc1-c1cccc(Nc2nccc3cc(CN4CC[C@@H](O)C4)cnc23)c1Cl (stereo partly drawn) [Compound 40, N-(2'-chloro-3'-((3-(((R)-3-hydroxypyrrolidin-1-yl)methyl)-1,7-naphthyridin-8-yl)amino)-2-methyl-[1,1'-biphenyl]-3-yl)-4-((((S)-5-oxopyrrolidin-2-yl)methyl)amino)-4,5,6,7-tetrahydropyrazolo[1,5-a]pyridine-2-carboxamide] | 0.01 to 0.1
8 | Cc1c(NC(=O)c2cc3n(n2)CCCC3NCC(=O)O)cccc1-c1cccc(Nc2nccc3cc(CN4CC[C@@H](O)C4)cnc23)c1Cl (stereo partly drawn) [Compound 41, 2-((2-((2'-chloro-3'-((3-(((R)-3-hydroxypyrrolidin-1-yl)methyl)-1,7-naphthyridin-8-yl)amino)-2-methyl-[1,1'-biphenyl]-3-yl)carbamoyl)-4,5,6,7-tetrahydropyrazolo[1,5-a]pyridin-4-yl)amino)acetic acid] | < 0.01
9 | Cc1c(NC(=O)c2cc3n(n2)CCCC3N2CC[C@@H](C(=O)O)C2)cccc1-c1cccc(Nc2nccc3cc(CN4CC[C@@H](O)C4)cnc23)c1Cl (stereo partly drawn) [Compound 42, (3R)-1-(2-((2'-chloro-3'-((3-(((R)-3-hydroxypyrrolidin-1-yl)methyl)-1,7-naphthyridin-8-yl)amino)-2-methyl-[1,1'-biphenyl]-3-yl)carbamoyl)-4,5,6,7-tetrahydropyrazolo[1,5-a]pyridin-4-yl)pyrrolidine-3-carboxylic acid] | < 0.01
10 | Cc1c(NC(=O)c2cc3n(n2)CCCC3N2CCC(C(=O)O)CC2)cccc1-c1cccc(Nc2nccc3cc(CN4CC[C@@H](O)C4)cnc23)c1Cl (stereo partly drawn) [Compound 44, 1-(2-((2'-chloro-3'-((3-(((R)-3-hydroxypyrrolidin-1-yl)methyl)-1,7-naphthyridin-8-yl)amino)-2-methyl-[1,1'-biphenyl]-3-yl)carbamoyl)-4,5,6,7-tetrahydropyrazolo[1,5-a]pyridin-4-yl)piperidine-4-carboxylic acid] | 0.01 to 0.1
11 | Cc1c(NC(=O)c2cc3n(n2)CCCC3O)cccc1-c1cccc(NC(=O)c2nc3c(n2C)CCN(CCC24CCC(C(=O)O)(CC2)C4)C3)c1C (stereo not drawn) [Compound 45, 4-(2-(2-((3'-(4-hydroxy-4,5,6,7-tetrahydropyrazolo[1,5-a]pyridine-2-carboxamido)-2,2'-dimethyl-[1,1'-biphenyl]-3-yl)carbamoyl)-1-methyl-6,7-dihydro-1H-imidazo[4,5-c]pyridin-5(4H)-yl)ethyl)bicyclo[2.2.1]heptane-1-carboxylic acid] | < 0.01
12 | CC(=O)NCCNC1CCCn2nc(C(=O)Nc3cccc(-c4cccc(NC(=O)c5nc6c(n5C)CCN(CCC57CCC(C(=O)O)(CC5)C7)C6)c4C)c3C)cc21 (stereo not drawn) [Compound 46, 4-(2-(2-((3'-(4-((2-acetamidoethyl)amino)-4,5,6,7-tetrahydropyrazolo[1,5-a]pyridine-2-carboxamido)-2,2'-dimethyl-[1,1'-biphenyl]-3-yl)carbamoyl)-1-methyl-6,7-dihydro-1H-imidazo[4,5-c]pyridin-5(4H)-yl)ethyl)bicyclo[2.2.1]heptane-1-carboxylic acid] | < 0.01
13 | Cc1c(NC(=O)c2cc3n(n2)CCCC3N2CC[C@@H](O)C2)cccc1-c1cccc(NC(=O)c2nc3c(n2C)CCN(CCC24CCC(C(=O)O)(CC2)C4)C3)c1C (stereo partly drawn) [Compound 47, 4-(2-(2-((3'-(4-((R)-3-hydroxypyrrolidin-1-yl)-4,5,6,7-tetrahydropyrazolo[1,5-a]pyridine-2-carboxamido)-2,2'-dimethyl-[1,1'-biphenyl]-3-yl)carbamoyl)-1-methyl-6,7-dihydro-1H-imidazo[4,5-c]pyridin-5(4H)-yl)ethyl)bicyclo[2.2.1]heptane-1-carboxylic acid] | < 0.01
14 | Cc1c(NC(=O)c2cc3n(n2)CCCC3NCCO)cccc1-c1cccc(NC(=O)c2nc3c(n2C)CCN(CCC24CCC(C(=O)O)(CC2)C4)C3)c1C (stereo not drawn) [Compound 48, 4-(2-(2-((3'-(4-((2-hydroxyethyl)amino)-4,5,6,7-tetrahydropyrazolo[1,5-a]pyridine-2-carboxamido)-2,2'-dimethyl-[1,1'-biphenyl]-3-yl)carbamoyl)-1-methyl-6,7-dihydro-1H-imidazo[4,5-c]pyridin-5(4H)-yl)ethyl)bicyclo[2.2.1]heptane-1-carboxylic acid] | < 0.01
15 | Cc1c(NC(=O)c2cc3n(n2)CCCC3NC[C@@H]2CCC(=O)N2)cccc1-c1cccc(NC(=O)c2nc3c(n2C)CCN(CCC24CCC(C(=O)O)(CC2)C4)C3)c1C (stereo partly drawn) [Compound 49, 4-(2-(2-((2,2'-dimethyl-3'-(4-((((S)-5-oxopyrrolidin-2-yl)methyl)amino)-4,5,6,7-tetrahydropyrazolo[1,5-a]pyridine-2-carboxamido)-[1,1'-biphenyl]-3-yl)carbamoyl)-1-methyl-6,7-dihydro-1H-imidazo[4,5-c]pyridin-5(4H)-yl)ethyl)bicyclo[2.2.1]heptane-1-carboxylic acid] | < 0.01
16 | Cc1c(NC(=O)c2cc3n(n2)CCCC3NCC(=O)O)cccc1-c1cccc(NC(=O)c2nc3c(n2C)CCN(CCC24CCC(C(=O)O)(CC2)C4)C3)c1C (stereo not drawn) [Compound 50, 4-(2-(2-((3'-(4-((carboxymethyl)amino)-4,5,6,7-tetrahydropyrazolo[1,5-a]pyridine-2-carboxamido)-2,2'-dimethyl-[1,1'-biphenyl]-3-yl)carbamoyl)-1-methyl-6,7-dihydro-1H-imidazo[4,5-c]pyridin-5(4H)-yl)ethyl)bicyclo[2.2.1]heptane-1-carboxylic acid] | < 0.01
17 | Cc1c(NC(=O)c2cc3n(n2)CCCC3NC(C)(C)C(=O)O)cccc1-c1cccc(NC(=O)c2nc3c(n2C)CCN(CCC24CCC(C(=O)O)(CC2)C4)C3)c1C (stereo not drawn) [Compound 51, 4-(2-(2-((3'-(4-((2-carboxypropan-2-yl)amino)-4,5,6,7-tetrahydropyrazolo[1,5-a]pyridine-2-carboxamido)-2,2'-dimethyl-[1,1'-biphenyl]-3-yl)carbamoyl)-1-methyl-6,7-dihydro-1H-imidazo[4,5-c]pyridin-5(4H)-yl)ethyl)bicyclo[2.2.1]heptane-1-carboxylic acid] | < 0.01
18 | CC(=O)NCCNC1CCCn2nc(C(=O)Nc3cccc(-c4cccc(NC(=O)c5nc6c(n5C)CCN(CCC57CCC(C(=O)O)(CC5)C7)C6)c4Cl)c3Cl)cc21 (stereo not drawn) [Compound 52, 4-(2-(2-((3'-(4-((2-acetamidoethyl)amino)-4,5,6,7-tetrahydropyrazolo[1,5-a]pyridine-2-carboxamido)-2,2'-dichloro-[1,1'-biphenyl]-3-yl)carbamoyl)-1-methyl-6,7-dihydro-1H-imidazo[4,5-c]pyridin-5(4H)-yl)ethyl)bicyclo[2.2.1]heptane-1-carboxylic acid] | < 0.01
